Measured values from paper PMC8777952, “Lignin Nanoparticles Deliver Novel Thymine Biomimetic Photo-Adducts with Antimelanoma Activity” (International Journal of Molecular Sciences, 2022).

Tests used:
RPMI7951 = test: MTT cell viability assay, RPMI7951 melanoma cells; format: cell-based, human; details: for SI (RPMI7951): 24 h, ratio reference cell line FB789 versus melanoma cell line; for IC50: Homo sapiens, RPMI-7951, 24 h
Text: (§1) Preliminary sunscreen data of 4a-d have been reported focusing on SKH1-E cell line, human abdominal skin explants, and in vivo hairless mouse models. Data for photo-adducts 6a-d, 7a-d, and 8a-d are not available. Thymine photo-adducts are well recognized as responsible for the activation of different molecular pathways involved in the cellular response to UV damage, including DNA repair system, melanogenesis, and Nucleotide Excision Repair (NER) system. In addition, TOP1ccs trapped near photo-adducts activates BER and remove (6-4)PPs in NER-deficient cells. TOP1 is highly expressed in malignant tumors, including carcinomas of the colon, prostate, ovary, lung, and melanoma. […] For this reason, we decided to study the antimelanoma activity of 4a-d, 6a-d, and 8a-d against two melanoma cancer cell lines, namely SK-MEL28 and RPMI7951 bearing a different genetic background. The antimelanoma activity was determined using the MTT cell viability assay, following the absorbance change (λmax 570 nm and 630 nm). The human FB789 cell line was used as reference. The CC50 (cytotoxic concentration that causes death of 50% of viable cells), IC50 (minimum concentration inhibiting 50% of the melanoma cells), and Selective Index (SI) (ratio between IC50 of reference cell line versus melanoma cell line) values are reported in Table 5. […] Compounds 4a-d were ineffective against melanoma cell lines. […] 234. Next, the antimelanoma activity of compounds 8a and 8b was evaluated after loading inside LNPs.
(§2) FB789 was grown in DMEM/F10, RPMI7951 melanoma cancer cells were grown in Minimal Essential Medium (MEM), while SK-Mel 28 melanoma cancer cells were grown in Dulbecco’s Modified Eagle Medium (DMEM). All culture media were supplemented with 10% Fetal Bovine Serum (FBS) plus 1.0 mM glutamine (40 µg/mL). The antimelanoma activity of 4a-d, 6a-d, and 8a-d was evaluated by MTT viability assay according to reference. Briefly, aliquots of the appropriate compound ([…]) were solubilized in dimethyl sulfoxide (one drops, DMSO) and administered to the selected cell line. After incubation for 3 h at 37 °C with MTT (0.5 mg/mL) the supernatant was removed, and […] of lysis solution (10% SDS and 0.6% acetic acid) was added to dissolve the formazan crystals. Optical density detection was performed by DTX880 Multimode Detector (Beckman Coulter) with 630 nm (background) and 570 nm filters. The percentage of cell viability was calculated as follows: % cell viability = 100–% cell cytotoxicity. The experiments for the evaluation of the antimelanoma activity of LNPs/8a and LNPs/8b were performed in a similar way using the appropriate amount of nanoparticles containing 1.0 mmol of the active compound and analyzing the antimelanoma activity at three different release times (2, 4, and 24 h).

[1] = MTT cell viability assay, FB789 reference cell line; format: cell-based; details: FB789 cells (normal human fibroblast)
Text: as §1, §2

[2] = Loading capacity and loading efficiency of lignin nanoparticles; format: physicochemical
Procedure: A further increase in the secondary solvent afforded low stable colloidal LNPs (18 mL; Table 3, entry 4) and aggregates (24 mL; Table 3, entry 5). Finally, LNPs were not formed after the addition of high volumes of deionized water (Table 3, entries 6–8). The optimal conditions affording stable colloidal LNPs (1:5 w/w and 1:10 w/w 4a/KL ratio, 3.0 mL of DMI/water 2:1 v/v, and 6.0 mL of secondary solvent) were successively applied for the encapsulation of 4b-d, and of the most abundant photo-adducts 6a-d and 8a-d. The loading capacity (LC) and loading efficiency (LE) Equations (1) and (2) were measured as a function of the concentration of the encapsulated compound [55, 56, 57, 58].
LNPs were separated by centrifugation, and the supernatant was analyzed by HPLC at λmax value of the encapsulated compound (271 nm for 4a-d, 191 nm for 6a-d, and 192 nm for 8a-d, respectively). Irrespective from the experimental conditions, the highest LE and LC were obtained in the presence of the highest value of the compound/KL ratio (compound/KL ratio of 1:5). […] (1) LC %:weight of starting drug−weight of unloaded drug/weight of lignin (2) LE %:weight of starting drug−weight of unloaded drug/weight of starting drug
LNPs were produced and loaded by the nanoprecipitation technique. The appropriate compound (3 mg) was dissolved in DMI/water (3.0 mL) at 50 °C under gentle stirring conditions followed by the addition of KL (15 mg). The fast addition of deionized water (6.0 mL) instantaneously produced LNPs. LNPs were then recovered by centrifugation (7500 rpm), washed with deionized water (10 mL) for 3 times, and lyophilized. The loading capacity (LC) and loading efficiency (LE) were evaluated by UHPLC analysis.

SK-Mel28 = test: MTT cell viability assay, SK-Mel28 melanoma cells; format: cell-based, human; details: for SI (SKMel28): 24 h, ratio reference cell line FB789 versus melanoma cell line; for IC50: Homo sapiens, SK-MEL-28, 24 h
Text: as §1, §2

[3] = set-up: method as in PMID 25075037; details: commercial antitumor agents; cited from earlier work
[4] = Cumulative (kinetic) release from lignin nanoparticles by dialysis; format: physicochemical; details: pH 5.5, first 4 h, 37.5 °C
Procedure: The cumulative releasing capacity of LNPs was evaluated as previously reported in the literature and normalized with respect to the total amount of entrapped compound. In a typical procedure, the appropriate LNPs (7.5 mg) were suspended in water (3.0 mL) and dialyzed against deionized water (60.0 mL) at two selected pH values (pH 7.4 and 5.5, respectively) at 37.5 °C for 24 h. The amount of released compound was measured by UV–vis spectrophotometry at the optimal λmax value for each compound by sampling the dialysis solution at appropriate time intervals (Figure 4). The withdrawn volume was replaced by corresponding deionized water in order to maintain constant the volume of the solution (Section 3).
LNPs (7.5 mg, compound/KL 1:5 ratio) were suspended in water (3.0 mL), placed in a dialysis membrane, and immersed in PBS buffer (60 mL) at two selected pH values (7.4 and 5.5, respectively) at 37.5 °C for 24 h. A similar procedure was applied solubilizing LNPs/8b (7.5 mg) water (3.0 mL), followed by dialysis against the culture medium DMEM (60 mL). […] The quantification of released compound was conducted by UV–Vis spectrophotometry at the λmax characteristic for each type of compound (271 nm for 4a-d, and 191 and 192 nm for 6a-d and 8a-d, respectively) using semi-micro cuvettes. […]

[5] = UV shielding (photo-protective) capacity of loaded LNPs; format: physicochemical; details: after 15 min of irradiation, loaded in LNPs versus free compound
Procedure: The UV shielding capacity of LNPs allows them to protect bioactive compounds from premature deactivation. To evaluate the photo-protective role of LNPs we studied the irradiation of LNPs/4a, LNPs/6a, LNPs/7a, and LNPs/8a as a selected representative example of thymine dimers. The samples were suspended in DMI/water mixture (2:1 v/v, 1.0 mL) and treated with UV under previously reported experimental conditions. At scheduled times (5, 10, and 15 min), aliquots (0.2 mL) of the suspension were withdrawn and analyzed. An excess of DMI (1.0 mL) was added to disaggregate LNPs, followed by filtration of residual lignin. The residual concentrations of 4a, 6a, 7a, and 8a (expressed as % with respect to the starting material) were evaluated at λmax 271 nm. Data were compared with 4a, 6a, 7a, and 8a after irradiation under similar experimental conditions (Figure 3).
LNPs/4a were prepared following the standard procedure previously described. Typically, LNPs/4a (1.0 mg) suspended in DMI/water mixture (2:1 ratio, 1.0 mL) were deposited on a glass lens and irradiated with Haerus source (250 Watt, the lamp was at 20.0 cm distance). […] The photo-protection capacity of LNPs was determined by measuring the decrease in absorbance (λmax 271 nm) of recovered 4a compared with free reference (Varian UVCary-50). […]

Compound	SI (RPMI7951) (RPMI7951)	IC50 (RPMI7951)	CC50 at 24 h [1]	LC% ([2]; Compd/KL ratio 1:5)	LE% ([2]; Compd/KL ratio 1:5)	LC% ([2]; Compd/KL ratio 1:10)	LE% ([2]; Compd/KL ratio 1:10)	SI (SKMel28) (SK-Mel28)	IC50 (SK-Mel28)	SI [3]	cumulative release [4]	photo-protection capacity [5]
CC12C(=O)NC(=O)N3CCCN4C(=O)NC(=O)C1(C)C4C32 (centres unmarked) [Compound 6a, 6a,6b-dimethylhexahydro-1H-3a,5,8,9a-tetraazacyclohepta[def]biphenylene 4,6,7,9(5H,8H)-tetraone]	2.7	138 ± 2.1 µM	375 ± 28.2 µM	6.93%	37.40%	6.81%	41.12%	4.39	85.2 ± 0.9 µM			
O=c1[nH]cc(F)c(=O)[nH]1 [Compound 5-FU, 5-fluro uracil]										55.6		
CC12C(=O)NC(=O)N3CCCCCN4C(=O)NC(=O)C1(C)C4C32 (centres unmarked) [Compound 6c, 8a,8b-dimethyloctahydro-1H-5a,7,10,11a-tetraazacyclonona[def]biphenylene-6,8,9,11(7H,10H)-tetraone]	1.2	195 ± 3.8 µM	234 ± 7.3 µM	11.46%	51.12%	10.48%	47.86%	0.83	282 ± 4.4 µM			
Cc1cn(CCCCn2cc(C)c(=O)[nH]c2=O)c(=O)[nH]c1=O [Compound 4b, N1,N1′-(butane-1,4-diyl)bis-thymine]	0.07	12400 µM	839 ± 10.9 µM	10.38%	51.91%	4.24%	52.40%	4.9	169 ± 4.6 µM			
CC12C(=O)NC(=O)N3CCCCN4C(=O)NC(=O)C1(C)C4C32 (centres unmarked) [Compound 6b, 7a,7b-dimethyloctahydro-4a,6,9,10a-tetraazacycloocta[def]biphenylene-5,7,8,10(6H,9H)-tetraone]	1.4	77.8 ± 1.8 µM	109 ± 5.4 µM	9.59%	50.94%	9.33%	50.74%	6.09	17.9 ± 1.9 µM			
COc1cccc2c1C(=O)c1c(O)c3c(c(O)c1C2=O)C[C@@](O)(C(=O)CO)C[C@@H]3O[C@H]1C[C@H](N)[C@H](O)[C@H](C)O1 [doxorubicin]										26.0		
Cc1cn(CCCn2cc(C)c(=O)[nH]c2=O)c(=O)[nH]c1=O [Compound 4a, N1,N1′-(propane-1,3-diyl)bis-thymine]	2.7	543.1 ± 2.7 µM	1450 ± 56.2 µM	5.59%	49.94%	4.93%	49.26%	4.7	304.3 ± 2.4 µM			
Cc1cn(CCCCCn2cc(C)c(=O)[nH]c2=O)c(=O)[nH]c1=O [Compound 4c, N1,N1′-(pentane-1,5-diyl)bis-thymine]	4.6	357 ± 5.1 µM	1660 ± 36.3 µM	12.52%	69.70%	6.97%	62.59%	5.7	292.9 ± 2.5 µM			
Cc1cn(CCCCCCn2cc(C)c(=O)[nH]c2=O)c(=O)[nH]c1=O [Compound 4d, N1,N1′-(hexane-1,6-diyl)bis-thymine]	1.14	343 ± 7.6 µM	392 ± 5.2 µM	14.37%	71.85%	7.14%	71.41%	2.3	169 ± 4.6 µM		71%	
CC12C(=O)NC(=O)N3CCCCCCN4C(=O)NC(=O)C1(C)C4C32 (centres unmarked) [Compound 6d, 9a,9b-dimethyldecahydro-6a,8,11,12a-tetraazacyclodeca[def]biphenylene-7,9,10,12(8H,11H)-tetraone]	1.6	234.9 ± 1.6 µM	377 ± 14.8 µM	13.22%	72.61%	11.54%	71.98%	4.3	87.9 ± 1.9 µM			
Cc1cn2c(=O)nc1C1N(CCC2)C(=O)NC(=O)C1(C)O (centres unmarked) [Compound 7a, 4-hydroxy-4,6-dimethyl-4,4a,10,11-tetrahydro-1H,9H-5,8-(azenomethano)pyrimido[1,6-e][1,5]diazonine-1,3,13(2H)-trione]												~40%
CC[C@@]1(O)C(=O)OCc2c1cc1n(c2=O)Cc2cc3ccccc3nc2-1 [camptothecin]										88.3		
